The results in this text go back to patent publication US20210337817A1, “COMPOUNDS AND FORMULATIONS FOR PROTECTIVE COATINGS” (Apeel Technology, Inc., priority 2018, published 2021).

Entries after “also recorded” stand apart in the source; their conditions may differ.

The nature of series [1]: Contact angle on paraffin wax, direct or primed surface. The note with it: paraffin wax primed with CA-1G 3 mg/mL in water and dried, then pure water drops. In kind it is physicochemical. Here is the method: For bar 1601, the solvent was pure water. […] The mixture corresponding to bar 1603 was the same as that of bar 1602 but also included 3 mg/mL of CA-1G. For bar 1604, a mixture of CA-1G at a concentration of 3 mg/mL in water was first deposited on the surface of the paraffin wax and then allowed to dry in order to prime the surface. Afterward, the contact angle of water on the primed surface was determined. For bar 1605, a mixture of CA-1G at a concentration of 3 mg/mL in water was first deposited on the surface of the paraffin wax and then allowed to dry in order to prime the surface. Afterward, the contact angle of a mixture of SA-1G and SA-Na at a mass ratio of 95:5 dispersed in water at a concentration of 45 mg/mL on the primed surface was determined.

For another series, the system named is finger limes. Description: Average daily mass loss rate of coated finger limes. The note with it: coating agent 10 mg/mL in ethanol, 23-27° C., humidity 40-55%, untreated 5.3%. An excerpt:
As used herein, the “mass loss rate” refers to the rate at which the product loses mass (e.g. by releasing water and other volatile compounds). The mass loss rate is typically expressed as a percentage of the original mass per unit time (e.g. percent per day).
FIG. 1 is a graph showing average daily mass loss rates for finger limes coated with various mixtures of PA-2G and PA-1G measured over the course of several days. Each bar in the graph represents average daily mass loss rates for a group of 24 finger limes. The finger limes corresponding to bar 102 were untreated. The finger limes corresponding to bar 104 were coated with a coating agent that was substantially pure PA-1G. The finger limes corresponding to bar 106 were coated with a coating agent that was about 75% PA-1G and 25% PA-2G by mass. The finger limes corresponding to bar 108 were coated with a coating agent that was about 50% PA-1G and 50% PA-2G by mass. The finger limes corresponding to bar 110 were coated with a coating agent that was about 25% PA-1G and 75% PA-2G by mass. The finger limes corresponding to bar 112 were coated with a coating agent that was substantially pure PA-2G. The coating agents were each dissolved in ethanol at a concentration of 10 mg/mL to form solutions, and the solutions were applied to the surface of the corresponding finger limes to form the coatings. […]

Another series relates to avocados. Description: Skin damage of treated avocados (photograph). The note with it: 5 mg/mL in water, no long chain fatty acid esters/salts (FIG. 5). An excerpt: Medium chain fatty acids (e.g., having a carbon chain length in a range of 7 to 13) and/or salts or esters thereof can also be used as coating agents to form coatings over produce or other plant matter or agricultural products using the methods described above.
[…] […] Prior to treatment, the avocado skin was virtually entirely green (not shown).

As for `CCCCCCCCCC(=O)OCC(O)CO` (stereo not shown) [CA-1G, 2,3-dihydroxypropan-1-yl decanoate], in series [1], the “average contact angle of water on primed surface” value worked out at 24 °.

Regarding `CCCCCCCCCCCCCCCC(=O)OCC(O)CO` (stereo not shown) [PA-1G, 2,3-dihydroxypropan-1-yl palmitate], in the series with finger limes, the “average daily mass loss rate” value was 4.3 % per day.

With `CCCCCCCCCCCCCCCC(=O)OC(CO)CO` [PA-2G, 1,3-dihydroxypropan-2-yl palmitate], the “average daily mass loss rate” value with finger limes was found to be 3.7 % per day.

For the compound `CCCCCCCCCCC(=O)OCC(O)CO` (stereo not shown) [UA-1G, 2,3-dihydroxypropan-1-yl undecanoate], the “skin damage of avocados after treatment” value in the series on avocados was “high density of black discolored regions; also recorded: extensive skin damage”.
